In brackets after ≈: the same amount, converted by molar mass.

This is an account of results in the OPERA property sets (Mansouri et al. 2018).

For the data set the following is noted: 25 °C.
`Sc1ccccc1`: the solubility is 7.58 mM (≈ 835 µg/mL).
In the case of `CCCC(C)(C)CO` it was 33.1 mM (≈ 3850 µg/mL).
The figure for `CCc1ccccc1Br` is 0.214 mM (≈ 39.5 µg/mL); for `Cc1ccc(Br)cc1` it is 0.643 mM (≈ 110 µg/mL).
The figure for `ICCI` is 0.606 mM (≈ 171 µg/mL); for `Cc1c2ccccc2cc2c1cc(F)c1ccccc12` it is 4.9e-05 mM (≈ 0.0127 µg/mL).
`CC1CCOC1` (stereo unspecified): the solubility was found to be 1230 mM (≈ 106000 µg/mL).
In the case of `Brc1cc(Br)cc(Br)c1` it was 0.00251 mM (≈ 0.79 µg/mL); in that of `CCS`, 166 mM (≈ 10300 µg/mL); in that of `CC(C)[C@@H](C)CO`, 427 mM (≈ 43600 µg/mL).
The figure for `CCOC(=O)CCCC(=O)OCC` is 46.8 mM (≈ 8810 µg/mL); for `C=COC1CC1` it is 79.4 mM (≈ 6680 µg/mL); for `CC(C)c1ccccc1Br` it is 0.0646 mM (≈ 12.9 µg/mL).
As to `Brc1ccccc1Br`, the solubility turned out to be 0.316 mM (≈ 74.6 µg/mL).
The figure for `CC(C)OC=O` is 235 mM (≈ 20700 µg/mL); for `CCC(C)OC` (stereo unspecified) it is 186 mM (≈ 16400 µg/mL).

As a reminder, the solubility is how much of the substance goes into solution per volume. A high value points to a readily soluble substance.
